{"source": "patent US9067894B1", "about": "“Compound, composition, and method of activating GIRK potassium channel and use of same for treating conditions of interest” (Vanderbilt University, priority 2013, dated 2015)", "key": {"[1]": {"tested_on": "Glutamate (NMDA agonism)", "assay": "Radioligand displacement (Ricerca)", "type": "binding, rat", "details": "10 μM"}, "[2]": {"tested_on": "GABAA (flunitrazepam)", "assay": "Radioligand displacement (Ricerca)", "type": "binding, rat", "details": "10 μM"}, "[3]": {"tested_on": "Purinergic P2X", "assay": "Radioligand displacement (Ricerca)", "type": "binding, rabbit", "details": "10 μM"}, "[4]": {"biological_target": "T1, Endothelin ETB (Homo sapiens, UniProt P24530)", "T1 construct": "Ricerca", "T1 sequence (P24530 27-442)": "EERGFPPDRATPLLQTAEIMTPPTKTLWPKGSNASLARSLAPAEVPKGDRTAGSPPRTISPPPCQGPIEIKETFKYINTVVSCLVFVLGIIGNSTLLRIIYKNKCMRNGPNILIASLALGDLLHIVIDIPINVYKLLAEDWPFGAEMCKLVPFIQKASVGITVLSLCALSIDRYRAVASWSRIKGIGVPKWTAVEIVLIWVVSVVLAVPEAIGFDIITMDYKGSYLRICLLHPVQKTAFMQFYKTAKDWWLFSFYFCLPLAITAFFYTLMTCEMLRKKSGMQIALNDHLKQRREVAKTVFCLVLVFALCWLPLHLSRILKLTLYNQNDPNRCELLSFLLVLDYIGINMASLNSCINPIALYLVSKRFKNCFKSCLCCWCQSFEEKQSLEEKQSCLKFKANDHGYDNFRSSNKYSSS", "assay": "Radioligand displacement (Ricerca)", "type": "binding"}, "[5]": {"assay": "Ascending dose study in mice", "type": "in vivo, mouse", "details": "mice, 10, 30, 60 mg/kg intraperitoneal", "procedure": "To begin to assess […] pharmacodynamics properties, an ascending dose study (10, 30, 60 mg/kg, intraperitoneal injection) was performed in mice."}, "[6]": {"biological_target": "T2, Transporter, SERT (Homo sapiens, UniProt P31645)", "T2 construct": "Ricerca (contract panel)", "T2 sequence (P31645 whole entry)": "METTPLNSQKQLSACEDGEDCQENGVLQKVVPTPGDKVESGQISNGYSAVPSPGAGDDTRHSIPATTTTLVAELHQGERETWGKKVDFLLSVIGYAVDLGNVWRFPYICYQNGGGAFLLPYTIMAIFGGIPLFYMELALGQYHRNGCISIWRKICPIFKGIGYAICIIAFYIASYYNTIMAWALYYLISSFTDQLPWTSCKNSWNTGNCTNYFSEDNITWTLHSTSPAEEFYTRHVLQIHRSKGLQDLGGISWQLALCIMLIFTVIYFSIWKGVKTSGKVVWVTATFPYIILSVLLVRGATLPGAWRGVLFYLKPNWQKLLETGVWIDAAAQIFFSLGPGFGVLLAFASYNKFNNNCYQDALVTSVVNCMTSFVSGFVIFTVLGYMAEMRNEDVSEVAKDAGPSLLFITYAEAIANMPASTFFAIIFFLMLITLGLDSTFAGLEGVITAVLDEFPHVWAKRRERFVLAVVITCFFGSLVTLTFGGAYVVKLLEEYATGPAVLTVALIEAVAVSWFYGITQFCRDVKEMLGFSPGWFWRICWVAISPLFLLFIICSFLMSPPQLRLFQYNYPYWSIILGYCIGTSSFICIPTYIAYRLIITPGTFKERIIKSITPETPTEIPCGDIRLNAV", "assay": "Radioligand displacement (Ricerca)", "type": "binding"}, "[7]": {"biological_target": "T3, Kv7.4 (Homo sapiens, UniProt P56696)", "T3 construct": "expressed in transfected cells; host or cells: HEK-293", "assay": "Thallium flux assay, Kv7.4-expressing cells", "type": "cell-based", "text": "Cell Line Construction and Cell Culture. HEK-293 cells co-expressing human GIRK1/2 and rat mGlu8 were generated as previously described (Niswender et al., 2008). A HEK-293 cell line (ATCC, Manassas, Va.) expressing human GIRK1 and human GIRK2 was constructed by transfecting HEK-293 cells with GIRK1 and GIRK2 (Origene, Rockville, Md.) cloned into the pBudCE4.1 vector (Life Technologies, Carlsbad, Calif.) using FuGene 6 (Promega, Madison, Wis.) transfection reagent. Unless otherwise noted, other ion channel-expressing cells were prepared by transfecting HEK-293 cells with individual or combinations of subunits: GIRK1, pCMV6-A-BSD; GIRK2, pCMV6-A-puro; GIRK3, pCMV6-A-hygro; GIRK4, pCMV6-A-AC; Kv7.4, pIRESneo3. The Kir2.1 and hERG-expressing cell lines were made by transfecting T-REx-293 cells (Life Technologies, Carlsbad, Calif.) with Kir2.1 and Kv11.1, respectively, cloned into pcDNA5TO. Monoclonal cell lines were produced by limiting-dilution cloning of antibiotic-resistant cells and functional selection using the thallium flux assay described below. Unless otherwise noted, cells were maintained in Minimal Essential Medium, Alpha Medium (Mediatech, Manassas, Va.) supplemented with 10% fetal bovine serum (Sigma-Aldrich, Saint Louis, Mo.) and GlutaGro (Mediatech, Manassas, Va.), referred to henceforth as cell culture medium. […]"}, "[8]": {"biological_target": "T4, Neuropeptide Y (Y1 ) (Homo sapiens, UniProt P25929)", "T4 construct": "Ricerca (contract laboratory that ran the panel)", "T4 sequence (P25929 whole entry)": "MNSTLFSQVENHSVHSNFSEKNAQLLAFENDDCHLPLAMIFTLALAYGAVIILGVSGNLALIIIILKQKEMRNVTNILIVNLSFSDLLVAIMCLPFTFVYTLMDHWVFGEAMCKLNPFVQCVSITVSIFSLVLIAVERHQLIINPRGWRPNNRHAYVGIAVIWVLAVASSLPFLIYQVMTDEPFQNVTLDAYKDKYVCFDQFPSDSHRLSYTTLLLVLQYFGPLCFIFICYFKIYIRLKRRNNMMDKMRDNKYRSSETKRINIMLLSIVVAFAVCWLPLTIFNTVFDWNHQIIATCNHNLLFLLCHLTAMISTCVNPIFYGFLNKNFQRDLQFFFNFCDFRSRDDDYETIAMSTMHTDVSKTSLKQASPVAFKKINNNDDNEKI", "assay": "Radioligand displacement (Ricerca)", "type": "binding"}, "[9]": {"biological_target": "T5, Neuropeptide Y (Y2) (Homo sapiens, UniProt P49146)", "T5 construct": "Ricerca (contract laboratory that ran the panel)", "T5 sequence (P49146 whole entry)": "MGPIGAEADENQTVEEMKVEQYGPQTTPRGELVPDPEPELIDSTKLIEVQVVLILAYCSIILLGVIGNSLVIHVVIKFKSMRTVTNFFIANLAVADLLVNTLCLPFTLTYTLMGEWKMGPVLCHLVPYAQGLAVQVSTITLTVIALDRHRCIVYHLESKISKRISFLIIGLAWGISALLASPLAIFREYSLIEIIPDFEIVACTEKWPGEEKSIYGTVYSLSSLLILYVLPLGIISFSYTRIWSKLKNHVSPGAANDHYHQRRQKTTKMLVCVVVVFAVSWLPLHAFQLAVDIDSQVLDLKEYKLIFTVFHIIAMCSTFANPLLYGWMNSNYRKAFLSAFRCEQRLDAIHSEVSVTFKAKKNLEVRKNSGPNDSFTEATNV", "assay": "Radioligand displacement (Ricerca)", "type": "binding"}, "[10]": {"biological_target": "T6, hERG (Kv11.1) (Homo sapiens, UniProt Q12809)", "T6 construct": "expressed in transfected cells; host or cells: T-REx-293", "T6 sequence (Q12809 whole entry)": "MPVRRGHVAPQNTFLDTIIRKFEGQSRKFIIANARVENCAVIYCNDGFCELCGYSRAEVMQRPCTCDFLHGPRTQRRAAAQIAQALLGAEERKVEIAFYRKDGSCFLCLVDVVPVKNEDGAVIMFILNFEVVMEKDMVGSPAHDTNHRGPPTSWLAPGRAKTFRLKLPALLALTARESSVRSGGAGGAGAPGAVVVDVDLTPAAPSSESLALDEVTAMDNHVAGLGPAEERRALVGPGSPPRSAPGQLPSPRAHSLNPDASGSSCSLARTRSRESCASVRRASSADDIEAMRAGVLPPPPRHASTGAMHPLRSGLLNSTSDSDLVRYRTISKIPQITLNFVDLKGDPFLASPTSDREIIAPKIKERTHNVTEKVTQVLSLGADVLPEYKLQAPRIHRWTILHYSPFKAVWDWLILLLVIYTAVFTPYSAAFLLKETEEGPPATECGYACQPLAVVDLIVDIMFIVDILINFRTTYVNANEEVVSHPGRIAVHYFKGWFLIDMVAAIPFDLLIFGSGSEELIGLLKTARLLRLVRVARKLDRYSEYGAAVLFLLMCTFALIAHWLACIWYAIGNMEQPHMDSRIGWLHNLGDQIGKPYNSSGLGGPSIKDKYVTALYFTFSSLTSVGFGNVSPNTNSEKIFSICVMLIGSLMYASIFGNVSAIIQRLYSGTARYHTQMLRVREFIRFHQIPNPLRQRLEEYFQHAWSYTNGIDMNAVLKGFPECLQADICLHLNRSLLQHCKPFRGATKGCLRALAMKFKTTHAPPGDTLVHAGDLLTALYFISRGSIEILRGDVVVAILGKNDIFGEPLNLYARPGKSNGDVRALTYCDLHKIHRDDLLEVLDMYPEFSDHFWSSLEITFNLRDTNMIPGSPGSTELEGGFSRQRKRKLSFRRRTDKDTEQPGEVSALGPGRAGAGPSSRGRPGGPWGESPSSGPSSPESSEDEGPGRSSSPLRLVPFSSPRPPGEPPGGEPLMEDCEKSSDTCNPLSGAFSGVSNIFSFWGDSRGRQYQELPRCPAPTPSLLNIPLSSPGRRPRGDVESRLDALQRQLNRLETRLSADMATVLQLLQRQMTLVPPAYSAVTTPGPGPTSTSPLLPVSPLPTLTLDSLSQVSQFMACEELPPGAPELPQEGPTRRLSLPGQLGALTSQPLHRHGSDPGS", "assay": "Thallium flux assay, hERG-expressing cells", "type": "cell-based", "details": "human, T-REx-293 cells expressing hERG (Kv11.1), pH 7.3, at 100 μM; 100% inhibition defined by maximally effective dofetilide; read-out: maximum inhibition of hERG", "text": "(§1) Cell Line Construction and Cell Culture. HEK-293 cells co-expressing human GIRK1/2 and rat mGlu8 were generated as previously described (Niswender et al., 2008). A HEK-293 cell line (ATCC, Manassas, Va.) expressing human GIRK1 and human GIRK2 was constructed by transfecting HEK-293 cells with GIRK1 and GIRK2 (Origene, Rockville, Md.) cloned into the pBudCE4.1 vector (Life Technologies, Carlsbad, Calif.) using FuGene 6 (Promega, Madison, Wis.) transfection reagent. Unless otherwise noted, other ion channel-expressing cells were prepared by transfecting HEK-293 cells with individual or combinations of subunits: GIRK1, pCMV6-A-BSD; GIRK2, pCMV6-A-puro; GIRK3, pCMV6-A-hygro; GIRK4, pCMV6-A-AC; Kv7.4, pIRESneo3. The Kir2.1 and hERG-expressing cell lines were made by transfecting T-REx-293 cells (Life Technologies, Carlsbad, Calif.) with Kir2.1 and Kv11.1, respectively, cloned into pcDNA5TO. Monoclonal cell lines were produced by limiting-dilution cloning of antibiotic-resistant cells and functional selection using the thallium flux assay described below. Unless otherwise noted, cells were maintained in Minimal Essential Medium, Alpha Medium (Mediatech, Manassas, Va.) supplemented with 10% fetal bovine serum (Sigma-Aldrich, Saint Louis, Mo.) and GlutaGro (Mediatech, Manassas, Va.), referred to henceforth as cell culture medium. Cell culture medium was further supplemented with selection antibiotics, as appropriate.\n(§2) For thallium flux assays, cells were dislodged from tissue culture flasks using TrypLE Express (Life Technologies, Carlsbad, Calif.), transferred to a 50 mL centrifuge tube, and spun at 500×g for 2 min. The supernatant solution was removed by aspiration and the pellet was resuspended at concentration of ˜1000 cells/μL. Twenty μL/well of the cell suspension was transferred to 384-well, amine-coated assay plates (cat#354719, BD, Franklin Lakes, N.J.) using an electronic multichannel pipette. Plated cells were incubated overnight in a humidified 5% CO2 cell culture incubator at 37° C. […]"}, "[11]": {"biological_target": "T7, hERG potassium channel (Homo sapiens, UniProt Q12809)", "T7 construct": "expressed in transfected cells; host or cells: T-REx-293", "T7 sequence (Q12809 whole entry)": "as above", "assay": "Thallium flux assay, hERG-expressing cells", "type": "cell-based", "details": "hERG inhibition, thallium flux", "text": "as §1, §2"}, "[12]": {"biological_target": "T8, Adrenergic α1B (Rattus norvegicus, UniProt P15823)", "T8 construct": "Ricerca (contract assay)", "T8 sequence (P15823 whole entry)": "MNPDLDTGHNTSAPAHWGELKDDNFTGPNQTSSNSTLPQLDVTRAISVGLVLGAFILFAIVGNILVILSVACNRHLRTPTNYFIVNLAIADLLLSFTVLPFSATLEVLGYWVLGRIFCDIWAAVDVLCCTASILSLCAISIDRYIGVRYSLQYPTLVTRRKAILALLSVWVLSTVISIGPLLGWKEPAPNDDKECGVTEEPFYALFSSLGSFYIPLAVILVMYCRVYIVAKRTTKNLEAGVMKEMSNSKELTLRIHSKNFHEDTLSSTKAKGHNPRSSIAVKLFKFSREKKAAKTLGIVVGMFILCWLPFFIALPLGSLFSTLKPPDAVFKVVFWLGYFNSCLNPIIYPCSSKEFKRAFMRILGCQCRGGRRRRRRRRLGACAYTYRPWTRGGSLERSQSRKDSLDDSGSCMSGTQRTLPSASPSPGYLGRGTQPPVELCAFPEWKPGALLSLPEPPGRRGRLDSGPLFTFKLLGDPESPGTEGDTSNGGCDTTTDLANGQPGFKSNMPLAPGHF", "assay": "Radioligand displacement (Ricerca)", "type": "binding"}, "[13]": {"biological_target": "T9, Adenosine A3 (Homo sapiens, UniProt P0DMS8)", "T9 construct": "Ricerca (contract assay)", "T9 sequence (P0DMS8 whole entry)": "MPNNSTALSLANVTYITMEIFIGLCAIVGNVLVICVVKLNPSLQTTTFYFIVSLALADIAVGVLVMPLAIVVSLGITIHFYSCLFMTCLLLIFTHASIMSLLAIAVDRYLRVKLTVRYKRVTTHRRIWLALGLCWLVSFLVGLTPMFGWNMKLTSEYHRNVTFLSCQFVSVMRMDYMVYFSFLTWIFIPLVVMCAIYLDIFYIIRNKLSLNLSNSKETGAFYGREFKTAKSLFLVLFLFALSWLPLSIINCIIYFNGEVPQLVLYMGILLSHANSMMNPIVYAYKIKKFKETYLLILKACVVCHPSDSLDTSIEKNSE", "assay": "Radioligand displacement (Ricerca)", "type": "binding"}}, "note": "Where two headings read alike, the source gives them in different places.", "data": [{"smiles": "Cc1cc(NC(=O)Nc2ccc(F)c(F)c2)n(-c2ccccc2)n1", "note": "[VU0456810, 1-(3,4-difluorophenyl)-3-(3-methyl-1-phenyl-1H-pyrazol-5-yl)urea]", "values": [{"measurement": "% Inhibition", "setting": "[1]", "result": 21, "unit": "%"}, {"measurement": "% Inhibition", "setting": "[2]", "result": 24, "unit": "%"}, {"measurement": "% Inhibition", "setting": "[3]", "result": 16, "unit": "%"}, {"measurement": "inhibition at 10 µM", "setting": "[4]", "result": 3, "unit": "%"}, {"measurement": "appearance of animals", "setting": "[5]", "result": "appeared normal and not under obvious distress"}, {"measurement": "inhibition at 10 µM", "setting": "[6]", "result": -1, "unit": "%"}, {"measurement": "Potency", "setting": "[7]", "result": "Inactive"}, {"measurement": "inhibition at 10 µM", "setting": "[8]", "result": 24, "unit": "%"}, {"measurement": "inhibition at 10 µM", "setting": "[9]", "result": -5, "unit": "%"}, {"measurement": "inhibition at 20 min, 100 µM", "setting": "[10]", "result": "~60", "unit": "%"}, {"measurement": "IC50", "setting": "[11]; read-out: IC50", "result": "~10", "unit": "µM"}, {"measurement": "IC50", "setting": "[11]; average ± SEM, read-out: Potency", "result": "10.1 ± 7", "unit": "µM"}, {"measurement": "inhibition at 10 µM", "setting": "[12]", "result": 1, "unit": "%"}, {"measurement": "inhibition at 10 µM", "setting": "[13]", "result": 8, "unit": "%"}]}]}
